Measured values reported in patent US7138421B2, “Anti-androgenic pyrrolidines with tumor-inhibiting action” (Schring Aktiengesellschaft, priority 2003, dated 2006).
Read-outs that look alike come from different tables or passages of the source.

How the values were obtained:
[1] = tested on: LNCaP cells; experiment: Inhibition of the proliferation of LNCaP cells (crystal violet assay); assay type: cell-based, human; settings: for inhibition at 1 µM / IC50: Homo sapiens, LNCaP; for IC50: 7 to 8 days; for antiproliferative action (in words): LNCaP cells
Experimental: For the proliferation assay, 6000 LNCaP cells/well (Horoszewicz et al. Cancer Res. 1983, 43, 1809–1817) in a microtiter plate (96-well) in 50 μl of RPMI1640 medium are grown with 5% CCS and cultivated as in Model 1. After 24 hours, the cells receive 50 μl of 2×-concentrated test substance, diluted in culture medium. The solvent concentration is 0.5% DMSO. After 4 days, the cells receive another 100 μl of 1×-concentrated test substance, diluted in culture medium. After 7 to 8 days, the proliferation rate of the cells is determined by means of crystal violet assay (Gillies et al. Anal. Biochem. 1986, 159, 109–113). To determine the antagonism, the substance treatment is performed in the presence of […] of R1881 (1:1000 dilution of ethanolic solution). Control cells receive only 0.5% DMSO. For the agonism, the cells are treated only with test substance (without R1881).

[2] = tested on: seminal vesicles; experiment: Anti-androgenic action on testosterone-stimulated growth of the seminal vesicles of castrated mice; assay type: in vivo, mouse; settings: 7 days, castrated mice with testosterone propionate
Experimental: The function and the size of accessory reproductive glands (prostate and seminal vesicles) depend on androgens. In castrated animals, a growth of these organs is induced by the administration of androgen. Simultaneous treatment with anti-androgens inhibits this growth in a dose-dependent manner. For the examination of test substances, the mice were castrated. On the same day, treatment with testosterone propionate (0.03 mg/mouse) and the test substances (1× daily 10 or 30 mg/kg p.o. in benzyl benzoate-castor oil or ethanol/peanut oil (10:90)) was formulated. The treatment was carried out over 7 days and at the end of the test, the weights of the seminal vesicles and prostate were determined. The inhibition of the seminal vesicle growth, in percent, was calculated in reference to the control groups (with and without testosterone). As a reference substance, cyproterone acetate (30 mg/kg s.c. and p.o.) was used.

[3] = molecular target: T1, androgen receptor (Homo sapiens, UniProt P10275, T878A); assay type: cell-based
T1 construct: Destabilization of AR in LNCaP Cells by Test Substances; endogenous in cells; host or cells: LNCaP (human prostate cell line)
T1 sequence (P10275 1-920 T878A): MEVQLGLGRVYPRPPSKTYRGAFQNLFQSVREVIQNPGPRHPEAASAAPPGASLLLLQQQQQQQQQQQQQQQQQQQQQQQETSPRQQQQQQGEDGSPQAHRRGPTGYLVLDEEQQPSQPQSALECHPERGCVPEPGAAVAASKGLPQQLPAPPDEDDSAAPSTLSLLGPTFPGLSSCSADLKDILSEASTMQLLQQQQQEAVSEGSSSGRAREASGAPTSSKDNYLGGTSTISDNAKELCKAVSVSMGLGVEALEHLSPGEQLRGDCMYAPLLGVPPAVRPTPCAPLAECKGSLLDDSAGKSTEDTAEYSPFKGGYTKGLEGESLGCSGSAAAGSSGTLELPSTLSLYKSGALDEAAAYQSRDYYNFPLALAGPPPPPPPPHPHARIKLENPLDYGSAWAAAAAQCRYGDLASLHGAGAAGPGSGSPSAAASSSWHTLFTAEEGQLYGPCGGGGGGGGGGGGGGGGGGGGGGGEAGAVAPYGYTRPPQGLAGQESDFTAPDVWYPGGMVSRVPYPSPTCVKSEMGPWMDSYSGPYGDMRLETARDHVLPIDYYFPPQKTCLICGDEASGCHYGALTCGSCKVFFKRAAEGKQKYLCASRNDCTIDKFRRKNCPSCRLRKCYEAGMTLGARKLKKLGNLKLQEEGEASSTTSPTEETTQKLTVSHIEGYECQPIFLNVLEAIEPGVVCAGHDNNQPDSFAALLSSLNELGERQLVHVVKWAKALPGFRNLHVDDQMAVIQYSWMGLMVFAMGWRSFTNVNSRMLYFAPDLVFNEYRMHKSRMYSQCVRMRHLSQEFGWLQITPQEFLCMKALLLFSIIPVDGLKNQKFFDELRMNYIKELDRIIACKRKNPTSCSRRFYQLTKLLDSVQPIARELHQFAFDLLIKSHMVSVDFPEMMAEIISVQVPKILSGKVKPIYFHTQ

[4] = 1 μM test substance, compared to cell growth in the presence of 0.1 nmol of R1881, read-out: % Inhibition at 1 μM
[5] = LNCaP cells, 48 h, 1 μM, % of DMSO control
[6] = read-out: IC50 inhibition of the proliferation of LNCaP cells, in the presence of 0.1 nmol of R1881
[7] = in the presence of 0.1 nmol of R1881, read-out: IC50 inhibition of the proliferation of LNCaP cells
[8] = LNCaP cells, 48 h, 10 μM, % of DMSO control

## CC(O)(CS(=O)(=O)c1ccc(F)cc1)C(=O)Nc1ccc(C#N)c(C(F)(F)F)c1 (centres unmarked) [Bicalutamide, N-[4-Cyano-3-(trifluoromethyl)phenyl]-3-[(4-fluorophenyl)sulfonyl]-2-hydroxy-2-methylpropanamide, reference compound]
[1]; [4]
  inhibition at 1 µM: 85%
[2]; 30 mg/kg p.o., 1× daily
  % Inhibition of MSB Growth: 82%
[2]; 30 mg/kg s.c.
  % Inhibition of MSB Growth: 86%

## CC(=O)O[C@]1(C(C)=O)CC[C@H]2[C@@H]3C=C(Cl)C4=CC(=O)[C@@H]5C[C@@H]5[C@]4(C)[C@H]3CC[C@@]21C [CPA, 17-(acetyloxy)-6-chloro-1β,2β-dihydro-3′H -cyclopropa[1,2]pregna-1,4,6-triene-3,20-dione, reference compound]
[2]; 30 mg/kg s.c.
  % Inhibition of MSB Growth: 85%

## CC1(C)C(=O)N(c2ccc(C#N)c(C(F)(F)F)c2)C(=S)N1CCCCCCCN1CCC[C@H]1CO [Example 9, 4-[3-[7-[(2S)-2-(Hydroxymethyl)pyrrolidin-1-yl]heptyl]-4,4-dimethyl-5-oxo-2-thioxoimidazolidin-1-yl]-2-(trifluoromethyl)benzonitrile]
[3]; [5]
  AR Content at 1 μM: 63%
[1]; [6]
  IC50: 0.026 µM
[1]; [4]
  inhibition at 1 µM: 92%

## C[C@@H]1CC[C@H](C)N1CCCCCCCCN1C(=S)N(c2ccc(C#N)c(C(F)(F)F)c2)C(=O)C1(C)C [Example 37, 4-[3-[8-[(2R,5S)-rel-2,5-Dimethylpyrrolidin-1-yl]octyl]-4,4-dimethyl-5-oxo-2-thioxoimidazolidin-1-yl]-2-(trifluoromethyl)benzonitrile]
[3]; [5]
  AR Content at 1 μM: 57%
[1]; [6]
  IC50: 0.011 µM
[1]; [4]
  inhibition at 1 µM: 99%

## CC(C)(O)[C@@H]1CCCN1CCCCCCCCN1C(=S)N(c2ccc(C#N)c(C(F)(F)F)c2)C(=O)C1(C)C [Example 40, 4-[3-[8-[(2S)-2-(1-Hydroxy-1-methylethyl)pyrrolidin-1-yl]octyl]-4,4-dimethyl-5-oxo-2-thioxoimidazolidin-1-yl]-2-(trifluoromethyl)benzonitrile]
[3]; [5]
  AR Content at 1 μM: 40%
[1]; [6]
  IC50: 0.011 µM
[1]; [4]
  inhibition at 1 µM: 118%

## CC(C)(O)[C@H]1CCCN1CCCCCCCCN1C(=S)N(c2ccc(C#N)c(C(F)(F)F)c2)C(=O)C1(C)C [Example 44, 4-[3-[8-[(2R)-2-(1-Hydroxy-1-methylethyl)pyrrolidin-1-yl]octyl]-4,4-dimethyl-5-oxo-2-thioxoimidazolidin-1-yl]-2-(trifluoromethyl)benzonitrile]
[1]; [4]
  inhibition at 1 µM: 115%
[1]; [7]
  IC50: 0.011 µM

## CCC(O)(CC)[C@@H]1CCCN1CCCCCCCCN1C(=S)N(c2ccc(C#N)c(C(F)(F)F)c2)C(=O)C1(C)C [Example 47, 4-[3-[8-[(2S)-2-(1-Hydroxy-1-ethylpropyl)pyrrolidin-1-yl]octyl]-4,4-dimethyl-5-oxo-2-thioxoimidazolidin-1-yl]-2-(trifluoromethyl)benzonitrile]
[1]; [4]
  inhibition at 1 µM: 99%
[1]; [7]
  IC50: 0.027 µM

## CC1(C)C(=O)N(c2ccc(C#N)c(C(F)(F)F)c2)C(=S)N1CCCCCCN1CC[C@H](C(N)=O)C1 [Example 49, (S)-1-[6-[3-[4-Cyano-3-(trifluoromethyl)phenyl]-5,5-dimethyl-4-oxo-2-thioxoimidazolidin-1-yl]hexyl]pyrrolidine-4-carboxamide]
[1]; [4]
  inhibition at 1 µM: 110%
[1]; [7]
  IC50: 0.032 µM

## CC1(C)C(=O)N(c2ccc(C#N)c(C(F)(F)F)c2)C(=S)N1CCCCCCCN1CC[C@H](C(N)=O)C1 [Example 50, (S)-1-[7-[3-[4-Cyano-3-(trifluoromethyl)phenyl]-5,5-dimethyl-4-oxo-2-thioxoimidazolidin-1-yl]heptyl]pyrrolidine-4-carboxamide]
[1]; [4]
  inhibition at 1 µM: 110%
[1]; [7]
  IC50: 0.015 µM

## CC1(C)C(=O)N(c2ccc(C#N)c(C(F)(F)F)c2)C(=S)N1CCCCCCCCN1CC[C@H](C(N)=O)C1 [Example 51, (S)-1-[8-[3-[4-Cyano-3-(trifluoromethyl)phenyl]-5,5-dimethyl-4-oxo-2-thioxoimidazolidin-1-yl]octyl]pyrrolidine-4-carboxamide]
[1]; [4]
  inhibition at 1 µM: 97%
[1]; [7]
  IC50: 0.02 µM

## CC1(C)C(=O)N(c2ccc(C#N)c(C(F)(F)F)c2)C(=S)N1CCCCCCN1CC[C@@H](C(N)=O)C1 [Example 52, (R)-1-[6-[3-[4-Cyano-3-(trifluoromethyl)phenyl]-5,5-dimethyl-4-oxo-2-thioxoimidazolidin-1-yl]hexyl]pyrrolidine-4-carboxamide]
[3]; [5]
  AR Content at 1 μM: 74%
[3]; [8]
  AR Content at 10 μM: 36%
[1]; [6]
  IC50: 0.012 µM
[1]; [4]
  inhibition at 1 µM: 100%

## CC1(C)C(=O)N(c2ccc(C#N)c(C(F)(F)F)c2)C(=S)N1CCCCCCCN1CC[C@@H](C(N)=O)C1 [Example 53, (R)-1-[7-[3-[4-Cyano-3-(trifluoromethyl)phenyl]-5,5-dimethyl-4-oxo-2-thioxoimidazolidin-1-yl]heptyl]pyrrolidine-4-carboxamide]
[1]; [4]
  inhibition at 1 µM: 97%
[1]; [7]
  IC50: 0.049 µM

## CC1(C)C(=O)N(c2ccc(C#N)c(C(F)(F)F)c2)C(=S)N1CCCCCCCCN1CC[C@@H](C(N)=O)C1 [Example 54, (R)-1-[8-[3-[4-Cyano-3-(trifluoromethyl)phenyl]-5,5-dimethyl-4-oxo-2-thioxoimidazolidin-1-yl]octyl]pyrrolidine-4-carboxamide]
[1]; [4]
  inhibition at 1 µM: 93%
[1]; [7]
  IC50: 0.064 µM

## CC1(C)C[C@@H](CN2CCCC2)N(CCCCCCCN2CCN(c3ccc(C#N)c(C(F)(F)F)c3)C2=S)C1=O [Example 56, 4-[3-[7-[(2S)-4,4-Dimethyl-5-oxo-2-(pyrrolidin-1-ylmethyl)pyrrolidin-1-yl]heptyl]-2-thioxoimidazolidin-1-yl]-2-(trifluoromethyl)benzonitrile]
[3]; [5]
  AR Content at 1 μM: 24%

## CC1(C)C(=O)N(c2ccc(C#N)c(C(F)(F)F)c2)C(=S)N1CCO [Example 71 USRe 35956, 4-[3-(2-Hydroxyethyl)-4,4-dimethyl-5-oxo-2-thioxoimidazolidin-1-yl]-2-(trifluoromethyl)benzonitrile, reference compound]
[3]; [5]
  AR Content at 1 μM: 164%
[3]; [8]
  AR Content at 10 μM: 191%
[1]; [6]
  IC50: > 10 µM
[1]; [4]
  inhibition at 1 µM: 9%
[1]
  antiproliferative action (in words): little or no antiproliferative action

## CC1(C)C(=O)N(c2ccc(C#N)c(C(F)(F)F)c2)C(=S)N1CCCCO [Example 77 USRe 35956, 4-[3-(4-Hydroxybutyl)-4,4-dimethyl-5-oxo-2-thioxoimidazolidin-1-yl]-2-(trifluoromethyl)benzonitrile, reference compound]
[3]
  AR Content at 1 μM: 230%
  AR Content at 10 μM: 180%
[1]; read-out: % Inhibition at 1 μM, 1 μM test substance, compared to cell growth in the presence of 0.1 nmol of R1881
  inhibition at 1 µM: 34%
[1]; [6]
  IC50: > 10 µM
[1]
  antiproliferative action (in words): little or no antiproliferative action

## C[C@]1(O)CC[C@H]2[C@@H]3CCC4=CC(=O)CCC4=C3C=C[C@@]21C [Example R1881, 17β-hydroxy-17α-methylestra-4,9,11-trien-3-one, reference compound]
[3]; LNCaP cells
  influence on AR content (in words): stabilizes the AR protein
[3]; LNCaP cells, R1881 at 10 nM (printed in the 10 μM column), % of DMSO control
  AR Content: 250%
